Legend:
5-HT2C receptor = biological target: T1, 5-HT2C receptor (Homo sapiens, UniProt P28335); assay: Serotonin receptor binding experiment, 5-HT2C; design: species or system human or rat; details: [3H]Mesulergine 1 nM, 30 min at 37° C.; read-out: Receptor affinity (IC50, nM) 5-HT2C
T1 sequence (P28335 33-458): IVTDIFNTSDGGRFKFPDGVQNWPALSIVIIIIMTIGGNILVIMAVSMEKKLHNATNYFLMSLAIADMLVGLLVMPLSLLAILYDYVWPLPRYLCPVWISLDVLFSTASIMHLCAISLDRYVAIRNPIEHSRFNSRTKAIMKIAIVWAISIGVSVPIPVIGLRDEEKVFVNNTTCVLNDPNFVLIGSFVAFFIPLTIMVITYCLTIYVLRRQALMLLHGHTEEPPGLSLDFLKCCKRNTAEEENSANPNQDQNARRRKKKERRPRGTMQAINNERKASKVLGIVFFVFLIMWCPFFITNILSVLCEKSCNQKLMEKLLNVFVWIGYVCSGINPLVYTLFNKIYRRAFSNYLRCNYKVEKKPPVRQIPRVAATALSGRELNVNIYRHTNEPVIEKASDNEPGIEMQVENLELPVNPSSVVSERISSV
Procedure: (§1) The measurement of affinity for serotonin 5-HT receptor family was performed according to the experimental conditions as specified in Table 2 below using the method same as in Experimental Example 1 above.

5-HT7 receptor = 5-HT7 receptor (Homo sapiens, UniProt P34969); assay: Serotonin receptor binding experiment, 5-HT7; design: species or system human or rat; details: [3H]LSD 3 nM, 90 min at 27° C.; read-out: Receptor affinity (IC50, nM) 5-HT7
Procedure: as §1

5-HT6 receptor = 5-HT6 receptor (Homo sapiens, UniProt P50406); assay: Serotonin receptor binding experiment, 5-HT6; design: species or system human or rat; details: [3H]LSD 1.8 nM, 60 min at 37° C.; read-out: Receptor affinity (IC50, nM) 5-HT6
Procedure: as §1

[1] = biological target: T2, Human recombinant dopamine D3 receptor (Homo sapiens, UniProt P35462); assay: Measurement of affinity for dopamine D3 receptor ([3H]spiperone binding); details: [3H]spiperone 0.8 nM, CHO cell line, 60 min at 27° C.
T2 construct: purchased Euroscreen; host or cells: CHO cell line
Procedure: (§2) Human recombinant dopamine D2 and D3 receptors, which were expressed in CHO cell lines, respectively, were purchased from PerkinElmer and Euroscreen, respectively.
(§3) 50 mM Tris-HCl (pH 7.4) containing […] and 1 mM EDTA was used as a buffer solution for the measurement of affinity for dopamine D2 receptor. 50 mM Tris-HCl (pH 7.4) containing 5 mM MgCl2, 5 mM EDTA, 5 mM KCl, 1.5 mM CaCl2 and 120 mM NaCl was used as a buffer solution for the measurement of affinity for dopamine D3 receptor. For measurement of non-specific binding, 10 μM haloperidol (haloperidol) was used.

[2] = biological target: T3, Human recombinant dopamine D2 receptor (Homo sapiens, UniProt P14416); assay: Measurement of affinity for dopamine D2 receptor ([3H]spiperone binding); details: for IC50: [3H]spiperone 0.5 nM, CHO cell line, 60 min at 27° C.
T3 construct: purchased PerkinElmer; host or cells: CHO cell line
Procedure: as §2, §3

[3] = biological target: T4, human recombinant dopamine D4.2 receptor (Homo sapiens, UniProt P21917, DEL265-296); assay: Measurement of affinity for dopamine D4 receptor ([3H]YM-09151-2 binding); details: [3H]YM-09151-2 0.1 nM, receptor expressed in CHO-K1 cells, 120 min at 25° C.
T4 construct: purchased PerkinElmer Life and Analytical Sciences, USA; host or cells: CHO-K1 cells
T4 sequence (P21917 with tags, fused parts or gaps DEL265-296): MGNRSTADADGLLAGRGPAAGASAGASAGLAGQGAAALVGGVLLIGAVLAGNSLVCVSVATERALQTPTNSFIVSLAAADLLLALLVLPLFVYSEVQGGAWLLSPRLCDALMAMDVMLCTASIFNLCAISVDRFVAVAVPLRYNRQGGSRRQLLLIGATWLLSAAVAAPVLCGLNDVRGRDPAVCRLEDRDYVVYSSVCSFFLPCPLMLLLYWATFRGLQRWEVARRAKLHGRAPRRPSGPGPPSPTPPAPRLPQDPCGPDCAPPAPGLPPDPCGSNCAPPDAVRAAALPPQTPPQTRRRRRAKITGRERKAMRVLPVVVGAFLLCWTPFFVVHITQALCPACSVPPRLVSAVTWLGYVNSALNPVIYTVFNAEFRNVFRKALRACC
Procedure: The affinities of the compounds for dopamine D4 receptor were measured by using human recombinant dopamine D4.2 receptor (PerkinElmer Life and Analytical Sciences, USA) expressed in CHO-K1 cells, and [^3H]YM-09151-2 (PerkinElmer) was used as a radioactive ligand.
50 mM Tris-HCl (pH 7.4) containing 120 mM NaCl, 5 mM KCl, 5 mM MgCl2 and 1 mM EDTA was used as a buffer solution for the analysis of receptor binding. [^3H] YM-09151-2 binding reactions were performed in a 96-well plate format.
For drug screening, a reaction mixture with a final volume of 0.25 mL was prepared by mixing a compound of the present invention, D4 receptor membrane (43 μg/well), [^3H] YM-09151-2 (0.1 nM), 50 mM Tris-HCl (pH 7.4) and the like. The reaction mixture was incubated for 120 min at 25° C., and then promptly passed through Wallac GF/C glass fiber filter (Wallac, Finland), which was already wetted in 0.5% PEI, by using Inotech harvester (Inotech) to terminate the reaction, and then washed with cold 50 mM Tris-HCl buffer solution. The filter was then covered with MeltiLex, sealed in a sample bag, and then dried in an oven. The radioactivity retained in the filter was finally counted using MicroBeta Plus, Wallac.
The affinity (IC50) of a compound for the receptor was calculated via nonlinear regression analysis of sigmoidal dose-response equation with the data obtained from three independent experiments (GraphPad Prism Program, San Diego, USA), which are carried out using 7-8 different concentrations of the compound in duplicate. Nonspecific binding was measured in the presence of 10 μM clozapine.

[4] = tested on: apomorphine-induced cage climbing in mice; assay: Apomorphine-induced climbing behavior in mice; type: in vivo; details: ip 30 min prior to apomorphine (1 mg/kg, sc); for ED50: Mus musculus, read-out: Inhibitory effects on apomorphine-induced climbing behavior ED50 (mg/kg, ip)
Procedure: When mice were treated with apomorphine (1 mg/kg, sc), a potent dopamine receptor agonist, and were put into cylindrical cages (diameter, 12 cm/height, 14 cm) with the floor and wall consisting of metal bars and covered with a lid, they begin to perform repeatedly a psychotic behavior of ‘cage climbing’. Their climbing behaviors were monitored every 10 min for 30 min and scored by 4-point rating scale (0˜3 points) depending on the extent of the behavior (Costentin, J. et al., Nature 1975, 257, 405-7; Protais, P. et al., Psychopharmacology 1976, 50, 1-6).
The compounds were injected intraperitoneally into mice 30 min prior to apomorphine administration. The inhibitory effects of the compounds against control group were measured and each ED50 was calculated therefrom.

5-HT2A receptor = 5-HT2A receptor (Homo sapiens, UniProt P28223); assay: Serotonin receptor binding experiment, 5-HT2A; design: species or system human or rat; details: [3H]ketanserin 1 nM, 15 min at 37° C.; read-out: Receptor affinity (IC50, nM) 5-HT2A
Procedure: as §1

T3 sequence (P14416 whole entry): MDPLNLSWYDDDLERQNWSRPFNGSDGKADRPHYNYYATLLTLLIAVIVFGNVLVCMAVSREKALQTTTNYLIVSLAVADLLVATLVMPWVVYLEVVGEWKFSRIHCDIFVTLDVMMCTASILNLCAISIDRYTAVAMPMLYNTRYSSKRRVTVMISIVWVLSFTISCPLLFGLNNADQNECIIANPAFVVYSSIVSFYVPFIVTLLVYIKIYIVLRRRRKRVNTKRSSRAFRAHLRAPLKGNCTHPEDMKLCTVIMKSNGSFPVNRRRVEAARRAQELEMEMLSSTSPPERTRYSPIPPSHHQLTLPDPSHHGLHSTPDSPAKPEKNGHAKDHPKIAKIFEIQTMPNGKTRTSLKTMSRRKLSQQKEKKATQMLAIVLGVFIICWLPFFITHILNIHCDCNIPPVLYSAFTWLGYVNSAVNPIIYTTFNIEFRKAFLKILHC
Chain of 5-HT6 receptor (P50406 whole entry): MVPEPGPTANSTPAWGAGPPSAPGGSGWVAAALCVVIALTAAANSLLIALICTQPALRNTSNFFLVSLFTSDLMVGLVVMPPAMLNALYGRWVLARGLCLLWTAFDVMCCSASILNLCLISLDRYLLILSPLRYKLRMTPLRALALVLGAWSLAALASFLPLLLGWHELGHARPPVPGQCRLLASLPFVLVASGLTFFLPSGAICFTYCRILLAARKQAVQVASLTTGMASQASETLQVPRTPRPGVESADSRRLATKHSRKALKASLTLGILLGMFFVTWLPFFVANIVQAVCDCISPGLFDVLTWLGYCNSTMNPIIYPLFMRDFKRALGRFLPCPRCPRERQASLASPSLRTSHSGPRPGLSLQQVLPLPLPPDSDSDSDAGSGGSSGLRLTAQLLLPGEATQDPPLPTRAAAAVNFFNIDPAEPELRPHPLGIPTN
Chain of 5-HT7 receptor (P34969 whole entry): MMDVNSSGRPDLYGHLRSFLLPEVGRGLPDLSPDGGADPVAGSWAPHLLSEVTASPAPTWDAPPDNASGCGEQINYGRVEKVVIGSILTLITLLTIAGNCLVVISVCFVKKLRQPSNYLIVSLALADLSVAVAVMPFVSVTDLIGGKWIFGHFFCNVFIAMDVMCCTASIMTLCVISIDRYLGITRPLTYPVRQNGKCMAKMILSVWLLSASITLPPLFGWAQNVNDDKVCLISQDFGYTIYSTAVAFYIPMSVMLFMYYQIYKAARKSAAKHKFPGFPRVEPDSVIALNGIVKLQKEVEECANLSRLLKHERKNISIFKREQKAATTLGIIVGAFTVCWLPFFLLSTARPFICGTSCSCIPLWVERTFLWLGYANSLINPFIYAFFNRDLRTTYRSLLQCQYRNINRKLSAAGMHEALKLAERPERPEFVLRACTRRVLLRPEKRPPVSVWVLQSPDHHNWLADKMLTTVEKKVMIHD
T2 sequence (P35462 whole entry): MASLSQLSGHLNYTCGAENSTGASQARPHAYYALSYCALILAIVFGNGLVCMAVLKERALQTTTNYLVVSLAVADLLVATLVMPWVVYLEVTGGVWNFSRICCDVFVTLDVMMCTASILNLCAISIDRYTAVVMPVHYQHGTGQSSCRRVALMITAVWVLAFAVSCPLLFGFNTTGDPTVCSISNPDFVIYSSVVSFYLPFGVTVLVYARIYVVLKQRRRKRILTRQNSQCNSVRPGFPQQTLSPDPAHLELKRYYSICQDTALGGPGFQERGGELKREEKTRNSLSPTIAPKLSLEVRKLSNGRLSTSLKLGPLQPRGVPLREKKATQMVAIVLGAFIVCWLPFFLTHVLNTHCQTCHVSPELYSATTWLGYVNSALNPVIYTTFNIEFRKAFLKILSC
Chain of 5-HT2A receptor (P28223 whole entry): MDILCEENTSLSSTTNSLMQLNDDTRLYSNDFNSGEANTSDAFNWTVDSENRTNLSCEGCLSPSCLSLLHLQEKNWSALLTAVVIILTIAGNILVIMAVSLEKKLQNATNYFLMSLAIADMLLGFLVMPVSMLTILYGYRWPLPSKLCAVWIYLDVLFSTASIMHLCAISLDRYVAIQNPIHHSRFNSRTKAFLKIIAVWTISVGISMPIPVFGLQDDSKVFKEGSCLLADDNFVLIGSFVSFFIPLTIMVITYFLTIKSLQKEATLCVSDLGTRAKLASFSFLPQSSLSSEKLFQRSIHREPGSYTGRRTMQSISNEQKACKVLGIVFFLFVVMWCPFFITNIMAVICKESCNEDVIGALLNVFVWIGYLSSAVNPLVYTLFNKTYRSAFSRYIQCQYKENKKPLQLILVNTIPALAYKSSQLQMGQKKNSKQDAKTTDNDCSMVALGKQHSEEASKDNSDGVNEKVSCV

In the case of CCCc1cc(CCCN2CCN(c3ccccc3)CC2)n(-c2ccccc2)n1 [Compound 155, 1-phenyl-4-(3-(1-phenyl-3-propyl-1H-pyrazol-5-yl)propyl)piperazine], the IC50 (5-HT2C receptor) is reported as 671 nM, the IC50 (5-HT7 receptor) is reported as 259 nM and the IC50 (5-HT6 receptor) is reported as > 10000 nM. For the same molecule, the IC50 [1] was 461 nM, the “affinity for D2 receptors (in words)” value [2] was “extremely poor affinity” and the IC50 [2] was 5260 nM. The IC50 [3] was 5.9 nM, the ED50 [4] was 8.8 to 14.5 mg/kg and the “Inhibitory effects on apomorphine-induced climbing behavior ED50 (mg/kg, ip)” value (“Inhibitory effects” below) [4] was 10.7 mg/kg. For the same molecule, the IC50 (5-HT2A receptor) was 35 nM.
With CCCc1cc(CCCN2CCN(c3ccccc3F)CC2)n(-c2ccccc2)n1 [Compound 156, 1-(2-fluorophenyl)-4-(3-(1-phenyl-3-propyl-1H-pyrazol-5-yl)propyl)piperazine] the IC50 (5-HT2C receptor) was 1400 nM, the IC50 (5-HT7 receptor) was 313 nM and the IC50 (5-HT6 receptor) was > 10000 nM. The IC50 [1] was 87 nM, the “affinity for D2 receptors (in words)” value [2] was “extremely poor affinity” and the IC50 [2] was 696 nM. The IC50 [3] was 3.5 nM, the ED50 [4] was 8.8 to 14.5 mg/kg and the “Inhibitory effects” value [4] was 9.6 mg/kg. For the same molecule, the IC50 (5-HT2A receptor) was 152 nM.
Work on CCCc1cc(CCCN2CCN(c3ccc(C)c(C)c3)CC2)n(-c2ccccc2)n1 [Compound 159, 1-(3,4-dimethylphenyl)-4-(3-(1-phenyl-3-propyl-1H-pyrazol-5-yl)propyl)piperazine] yielded an IC50 (5-HT2C receptor) of 154 nM, an IC50 (5-HT7 receptor) of 195 nM and an IC50 (5-HT6 receptor) of 2500 nM. The IC50 [1] was 131 nM, the “affinity for D2 receptors (in words)” value [2] was “extremely poor affinity” and the IC50 [2] was 2050 nM. For the same molecule, the IC50 [3] was 1.3 nM, the ED50 [4] was 8.8 to 14.5 mg/kg and the “Inhibitory effects” value [4] was 9.1 mg/kg. It also gave an IC50 (5-HT2A receptor) of 8 nM.
CCCc1cc(CCCN2CCN(c3cccc(C)c3C)CC2)n(-c2ccccc2)n1 [Compound 160, 1-(2,3-dimethylphenyl)-4-(3-(1-phenyl-3-propyl-1H-pyrazol-5-yl)propyl)piperazine] showed an IC50 (5-HT2C receptor) of 141 nM, an IC50 (5-HT7 receptor) of 84 nM and an IC50 (5-HT6 receptor) of 2010 nM. The IC50 [1] was 229 nM, the “affinity for D2 receptors (in words)” value [2] was “extremely poor affinity” and the IC50 [2] was 3790 nM. The IC50 [3] was 2.9 nM, the ED50 [4] was 8.8 to 14.5 mg/kg and the “Inhibitory effects” value [4] was 10.6 mg/kg. The IC50 (5-HT2A receptor) was 65 nM.
For CC(C)c1cc(CCCN2CCN(c3ccccc3F)CC2)n(-c2ccccc2)n1 [Compound 177, 1-(2-fluorophenyl)-4-(3-(1-phenyl-3-isopropyl-1H-pyrazol-5-yl)propyl)piperazine], the IC50 (5-HT2C receptor) was 505 nM, the IC50 (5-HT7 receptor) was 252 nM and the IC50 (5-HT6 receptor) was 9210 nM. For the same molecule, the IC50 [1] was 687 nM, the “affinity for D2 receptors (in words)” value [2] was “extremely poor affinity” and the IC50 [2] was 227 nM. For the same molecule, the IC50 [3] was 8 nM, the ED50 [4] was 8.8 to 14.5 mg/kg and the “Inhibitory effects” value [4] was 8.8 mg/kg. For the same molecule, the IC50 (5-HT2A receptor) was 27 nM.

From patent US8372844B2, “Piperazinyl-propyl-pyrazole derivatives as dopamine D4 receptor antagonists, and pharmaceutical compositions containing the same” (Korea Research Institute of Chemical Technology, priority 2007, dated 2013)
